Molecular target: KDR (Homo sapiens, UniProt P35968)
Assay: KDR kinase inhibition (Ki)
Assay type: biochemical

Sequence of KDR (P35968 20-1356, species assumed): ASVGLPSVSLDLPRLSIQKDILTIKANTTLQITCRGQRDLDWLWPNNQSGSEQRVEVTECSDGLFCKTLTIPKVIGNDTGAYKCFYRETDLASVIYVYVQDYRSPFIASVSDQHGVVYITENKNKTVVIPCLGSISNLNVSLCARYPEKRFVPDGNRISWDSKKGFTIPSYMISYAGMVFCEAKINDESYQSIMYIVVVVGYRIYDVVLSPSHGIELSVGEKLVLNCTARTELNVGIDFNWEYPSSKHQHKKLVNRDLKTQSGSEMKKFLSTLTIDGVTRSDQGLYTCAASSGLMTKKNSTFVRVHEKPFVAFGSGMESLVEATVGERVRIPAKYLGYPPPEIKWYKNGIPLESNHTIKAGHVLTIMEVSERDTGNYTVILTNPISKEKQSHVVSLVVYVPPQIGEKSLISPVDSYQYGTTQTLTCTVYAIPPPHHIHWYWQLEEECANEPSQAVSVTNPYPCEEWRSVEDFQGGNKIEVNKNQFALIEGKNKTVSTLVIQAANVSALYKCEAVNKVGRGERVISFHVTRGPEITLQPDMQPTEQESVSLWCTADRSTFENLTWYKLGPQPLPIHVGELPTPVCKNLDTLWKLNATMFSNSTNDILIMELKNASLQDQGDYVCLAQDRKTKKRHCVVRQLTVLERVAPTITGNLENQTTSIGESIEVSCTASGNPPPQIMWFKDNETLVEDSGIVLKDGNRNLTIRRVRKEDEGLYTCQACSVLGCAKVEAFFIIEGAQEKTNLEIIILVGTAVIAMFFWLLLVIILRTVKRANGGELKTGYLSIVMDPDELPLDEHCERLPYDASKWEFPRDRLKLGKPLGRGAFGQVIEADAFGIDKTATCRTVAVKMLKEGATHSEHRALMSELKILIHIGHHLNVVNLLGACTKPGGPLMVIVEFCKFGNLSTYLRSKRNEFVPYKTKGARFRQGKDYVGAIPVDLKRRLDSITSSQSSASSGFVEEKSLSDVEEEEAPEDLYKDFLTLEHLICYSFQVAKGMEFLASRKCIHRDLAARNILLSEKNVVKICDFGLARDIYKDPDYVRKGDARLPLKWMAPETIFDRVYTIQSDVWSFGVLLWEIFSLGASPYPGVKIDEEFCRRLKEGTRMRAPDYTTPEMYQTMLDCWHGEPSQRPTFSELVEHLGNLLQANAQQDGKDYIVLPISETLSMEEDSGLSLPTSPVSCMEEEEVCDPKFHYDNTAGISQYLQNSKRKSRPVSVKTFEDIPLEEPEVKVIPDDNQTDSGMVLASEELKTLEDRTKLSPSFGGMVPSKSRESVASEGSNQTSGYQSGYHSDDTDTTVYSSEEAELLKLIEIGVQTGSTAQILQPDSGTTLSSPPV

| Ki [µM] | Structure (SMILES) |
| --- | --- |
| 0.0054 | CC(=O)N1CC(C)(C)c2ccc(NC(=O)c3cccc4c3CCN(Cc3ccnc5ccccc35)C4)cc21 [Example 3H] |
| 0.333 | CC(C)(C)c1ccc(NC(=O)c2cccc3c2CCN(Cc2ccncc2)C3)cc1 [Example 1A] |
| 3 | O=C(Nc1ccc(Cl)cc1)c1cccc2c1CCN(Cc1ccncc1)C2 [Example 1, N-(4-chlorophenyl)-2-(pyridin-4-ylmethyl)-1,2,3,4-tetrahydroisoquinoline-5-carboxamide] |
| 0.529 | COc1cc2nccc(Cn3ccc4cc(Cl)ccc4c3=O)c2cc1OC [Example 11, 6-chloro-2-((6,7-dimethoxyquinolin-4-yl)methyl)isoquinolin-1(2H)-one] |
| 0.0428 | COc1cc(NC(=O)c2cccc3c2CCN(Cc2ccnc4ccccc24)C3)cc(OC)c1 [Example 3C] |
| 0.0111 | CC(C)(C)c1ccc(NC(=O)c2cccc3c2CCN(Cc2ccnc4ccccc24)C3=O)cc1 [Example 7A] |
| 0.0701 | O=C(Nc1ccc(Cl)cc1)Nc1cccc2c1CCN(Cc1ccnc3ccccc13)C2 [Example 5C] |
| 0.0016 | COc1cc2nccc(CN3CCc4c(C(=O)Nc5ccc(Cl)c(C(F)(F)F)c5)cccc4C3=O)c2cc1OC [Example 10A] |
| 0.105 | Cc1cccc(NC(=O)c2cccc3c2CCN(Cc2ccnc4ccccc24)C3)c1 [Example 3A] |
| 0.0723 | CC(C)c1ccc(NC(=O)Nc2cccc3c2CCN(Cc2ccnc4ccccc24)C3)cc1 [Example 5A] |

Reference: US8338455B2, “Compounds and methods of use” (Amgen Inc., priority 2006, dated 2012)
